Results reported in PubChem BioAssay AID1845203 (Molecular Pharmacology Branch, DTP, NCI, 2023).

Tested on: G-401 tumor spheroids, viability % test/control
Experiment: Anticancer human tumor G-401 cell line growth inhibition;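 note: spheroids exposed to compound for 7 days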;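 for viability, T/C: 100% = DMSO vehicle-treated spheroids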
Conditions: spheroids with HUVEC and MSC; for IC50: curve of first compound; for viability, T/C: stronger effect = lower value
Source text: Multicellular complex tumor spheroid response to DNA repair inhibitors in combination with DNA-damaging drugs
This study explores the anticancer activities of DNA-damaging drugs and inhibitors of DNA damage repair, both as single agents and in combinations. Complex tumor spheroids comprised of malignant cells, endothelial cells and mesenchymal stem cells served as an in vitro model for human solid tumors. This model system incorporates physiologically relevant features and patient-derived or established malignant cell lines with clinically relevant genetic alterations from many tumor types. Twenty-six patient-derived or established malignant cell lines were evaluated representing sarcoma, melanoma, small cell lung cancer (SCLC), non-small cell lung cancer (NSCLC), as well as bladder, ovarian and pancreatic cancers. The concentration ranges selected for each drug and investigational agent were based upon clinically achievable concentrations if the clinical Cmax of the agent was known.
Compounds. The drugs and compounds olaparib (NSC753686), talazoparib (NSC767125), berzosertib (NSC777718), elimusertib (NSC800525), nedisertib (NSC802822), VX-984 (NSC792969), AZD-1390 (NSC803789), temozolomide (NSC362856), topotecan (NSC609699), trabectedin (NSC813783), staurosporine (NSC755774), and gemcitabine (NSC613327) were obtained from the National Cancer Institute (NCI) Developmental Therapeutics Program Chemical Repository. The FDA-approved anticancer drug set is available from the Developmental Therapeutics Program at https://dtp.cancer.gov/organization/dscb/obtaining/available_plates.htm. […] The stock solutions were prepared in dimethyl sulfoxide (DMSO, Sigma-Aldrich, St. Louis, MO, cat. D2650) at 400-fold the tested concentration and stored at -70 degrees C. Prior to their use, the stock solutions were diluted in fresh medium and the final DMSO concentration in the assay was 0.25% (v/v). All drugs and investigational agents were tested over a range starting from a high concentration at or near the clinical Cmax and decreasing in half-log increments. If the clinical Cmax for an agent had not been determined, the highest concentration tested was 10 microM.
Cell Lines. The patient-derived cancer cell (PDC) lines: 156681-154-R-J1-PDC, 283228-195-R-J1-PDC, 287954-098-R-J1-PDC, 292921-168-R-J2-PDC, 349418-098-R-PDC, 425362-245-T-J1-PDC, 556581-035-R-J1-PDC, and BL0293-F563-PDC were received from the NCI Patient-Derived Models Repository (PDMR, https://pdmr.cancer.gov). The established cell lines HS-SY-2 (RRID:CVCL_8719), MPNST, and SYO-1 (RRID:CVCL_7146) were obtained from the Sloan Kettering Institute. The alveolar soft parts sarcoma cell line ASPS-1 (RRID:CVCL_S738) was established at the NCI and grown from internal seed stocks. The following established cell lines were purchased from the American Type Culture Collection (ATCC, Manassas, VA): G-401 (ATCC, cat. CRL-1441, RRID:CVCL_0270), SW982 (ATCC, cat. HTB-93, RRID:CVCL_1734), VA-ES-BJ (ATCC, cat. CRL-2138, RRID:CVCL_1785), NCI-H719 (ATCC, cat. CRL-5837, RRID:CVCL_1582), NCI-H196 (ATCC, cat. CRL-5823, RRID:CVCL_1509), NCI-H841 (ATCC, cat. CRL-5845, RRID:CVCL_1595), NCI-H1618 (ATCC, cat. CRL-5879, RRID:CVCL_1480), NCI-H1876 (ATCC, cat. CRL-5902, RRID:CVCL_1503), DMS 114 (ATCC, cat. CRL-2066; RRID:CVCL_1174), NCI-H211 (ATCC, cat. CRL-5824; RRID:CVCL_1529), and SW 1271 (ATCC, cat. CRL-2177, RRID:CVCL_1716). The small cell lung cancer cell line COR-L88 was purchased from Sigma-Aldrich (cat. 92031917-1VL, RRID:CVCL_1141). The non-small cell lung cancer cell lines NCI-H226 (RRID:CVCL_1544) and NCI-H322M (RRID:CVCL_1557) were established at the NCI and grown from internal seed stocks. Pooled donor human umbilical vein endothelial cells (HUVEC, Lonza, cat. CC-2519) and human mesenchymal stem cells (hMSC, Lonza, cat. PT-2501) were purchased from Lonza (Walkersville, MD).
Cell Culture. All cells were maintained in an incubator at 37 degrees C and 5% CO2 with 95% humidity. […]

CC1COCCN1c1cc(-c2ccnn2C)c2ccnc(-c3ccn[nH]3)c2n1 (stereo not given) + Cn1nnc2c(C(N)=O)ncn2c1=O
IC50 (second compound 1 µM): 76.9 nM
IC50 (second compound 3.16 µM): 86.6 nM
IC50 (second compound 10 µM): 79.7 nM
IC50 (second compound 31.6 µM): 70 nM
IC50 (second compound 100 µM): 55.6 nM
viability, T/C (second compound 1 µM, first compound 0.0316 µM): 76.3%
viability, T/C (second compound 1 µM, first compound 0.1 µM): 42.1%
viability, T/C (second compound 1 µM, first compound 0.316 µM): 22.9%
viability, T/C (second compound 1 µM, first compound 1 µM): 15.9%
viability, T/C (second compound 1 µM, first compound 3.16 µM): 16.1%
viability, T/C (second compound 1 µM, first compound 10 µM): 20%
viability, T/C (second compound 3.16 µM, first compound 0.0316 µM): 79.8%
viability, T/C (second compound 3.16 µM, first compound 0.1 µM): 45.6%
viability, T/C (second compound 3.16 µM, first compound 0.316 µM): 24.9%
viability, T/C (second compound 3.16 µM, first compound 1 µM): 16.8%
viability, T/C (second compound 3.16 µM, first compound 3.16 µM): 17.4%
viability, T/C (second compound 3.16 µM, first compound 10 µM): 19.8%
viability, T/C (second compound 10 µM, first compound 0.0316 µM): 76%
viability, T/C (second compound 10 µM, first compound 0.1 µM): 43.6%
viability, T/C (second compound 10 µM, first compound 0.316 µM): 21.5%
viability, T/C (second compound 10 µM, first compound 1 µM): 15.7%
viability, T/C (second compound 10 µM, first compound 3.16 µM): 16.4%
viability, T/C (second compound 10 µM, first compound 10 µM): 18.8%
viability, T/C (second compound 31.6 µM, first compound 0.0316 µM): 74.5%
viability, T/C (second compound 31.6 µM, first compound 0.1 µM): 39%
viability, T/C (second compound 31.6 µM, first compound 0.316 µM): 18%
viability, T/C (second compound 31.6 µM, first compound 1 µM): 15.4%
viability, T/C (second compound 31.6 µM, first compound 3.16 µM): 16.2%
viability, T/C (second compound 31.6 µM, first compound 10 µM): 18.5%
viability, T/C (second compound 100 µM, first compound 0.0316 µM): 66%
viability, T/C (second compound 100 µM, first compound 0.1 µM): 33.4%
viability, T/C (second compound 100 µM, first compound 0.316 µM): 13.7%
viability, T/C (second compound 100 µM, first compound 1 µM): 12.7%
viability, T/C (second compound 100 µM, first compound 3.16 µM): 14.1%
viability, T/C (second compound 100 µM, first compound 10 µM): 12%

CNCc1ccc(-c2cc(-c3nc(-c4ccc(S(=O)(=O)C(C)C)cc4)cnc3N)on2)cc1 + CC[C@@]1(O)C(=O)OCc2c1cc1n(c2=O)Cc2cc3c(CN(C)C)c(O)ccc3nc2-1
IC50 (second compound 0.003 µM): 326 nM
IC50 (second compound 0.00949 µM): < 9.49 nM
IC50 (second compound 0.03 µM): < 9.49 nM
IC50 (second compound 0.0949 µM): < 9.49 nM
IC50 (second compound 0.3 µM): < 9.49 nM
viability, T/C (second compound 0.003 µM, first compound 0.00949 µM): 82.9%
viability, T/C (second compound 0.003 µM, first compound 0.03 µM): 88%
viability, T/C (second compound 0.003 µM, first compound 0.0949 µM): 81.7%
viability, T/C (second compound 0.003 µM, first compound 0.3 µM): 50.5%
viability, T/C (second compound 0.003 µM, first compound 0.949 µM): 30.2%
viability, T/C (second compound 0.003 µM, first compound 3 µM): 21.1%
viability, T/C (second compound 0.00949 µM, first compound 0.00949 µM): 43.9%
viability, T/C (second compound 0.00949 µM, first compound 0.03 µM): 51.2%
viability, T/C (second compound 0.00949 µM, first compound 0.0949 µM): 39.5%
viability, T/C (second compound 0.00949 µM, first compound 0.3 µM): 21.5%
viability, T/C (second compound 0.00949 µM, first compound 0.949 µM): 16.5%
viability, T/C (second compound 0.00949 µM, first compound 3 µM): 17.1%
viability, T/C (second compound 0.03 µM, first compound 0.00949 µM): 21%
viability, T/C (second compound 0.03 µM, first compound 0.03 µM): 15.8%
viability, T/C (second compound 0.03 µM, first compound 0.0949 µM): 17.9%
viability, T/C (second compound 0.03 µM, first compound 0.3 µM): 19.5%
viability, T/C (second compound 0.03 µM, first compound 0.949 µM): 20.8%
viability, T/C (second compound 0.03 µM, first compound 3 µM): 18.1%
viability, T/C (second compound 0.0949 µM, first compound 0.00949 µM): 8.75%
viability, T/C (second compound 0.0949 µM, first compound 0.03 µM): 8.82%
viability, T/C (second compound 0.0949 µM, first compound 0.0949 µM): 12.4%
viability, T/C (second compound 0.0949 µM, first compound 0.3 µM): 16.4%
viability, T/C (second compound 0.0949 µM, first compound 0.949 µM): 16.9%
viability, T/C (second compound 0.0949 µM, first compound 3 µM): 13.3%
viability, T/C (second compound 0.3 µM, first compound 0.00949 µM): 4.81%
viability, T/C (second compound 0.3 µM, first compound 0.03 µM): 6.19%
viability, T/C (second compound 0.3 µM, first compound 0.0949 µM): 7.23%
viability, T/C (second compound 0.3 µM, first compound 0.3 µM): 9.53%
viability, T/C (second compound 0.3 µM, first compound 0.949 µM): 9.78%
viability, T/C (second compound 0.3 µM, first compound 3 µM): 4.97%
